PubChem BioAssay AID252 (DTP/NCI, 2004)
Where “and” joins values, the source holds several entries; their conditions need not be identical. Identical values can stand only once. Inconclusive results and toxic doses are left out. *1 amine or outer side, *2 acyl side, *3 side chain or, on linkers, in order; H or OH if unused. Where a SMILES comes first, the peptide text is derived from it. Bridges are numbered along the chain shown (N, C = ends). Roman numbers before positions name the chains, in order. [ ]: non-standard residue; d: D form. Actinocin(9to1) = Cc1c2oc3c(C)ccc(C(=O)[*:1])c3nc-2c(C(=O)[*:2])c(N)c1=O; aThr = C[C@H](O)[C@H](N)C(=O)O; NMeV = CN[C@H](C(=O)O)C(C)C; Sar = CNCC(=O)O

System: BDF1 mice, intracerebral L1210 leukemia, survival T/C
Test: NCI In Vivo Anticancer Drug Screen. Data for tumor model L1210 Leukemia (intracerebral) in B6D2F1 (BDF1) mice
Details: higher = longer survival
How it was run: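 Tumour was transplanted, animals received compound or vehicle, then survival in each group was measured and treated divided by control.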

SMILES: CN(N=O)C(=O)NCCCCNC(=O)N(C)N=O
- T/C (endpoint: mean survival time, dose: 250.0 mg/kg/injection, schedule: Q01DX001 (ip), vehicle: carboxymethylcellulose (CMC)): 103 % of control
- T/C (endpoint: mean survival time, dose: 300.0 mg/kg/injection, schedule: Q01DX001 (ip), vehicle: carboxymethylcellulose (CMC)): 110 % of control
- T/C (endpoint: mean survival time, dose: 500.0 mg/kg/injection, schedule: Q01DX001 (ip), vehicle: carboxymethylcellulose (CMC)): 102 % of control
- T/C (endpoint: mean survival time, dose: 750.0 mg/kg/injection, schedule: Q01DX001 (ip), vehicle: carboxymethylcellulose (CMC)): 110 % of control

SMILES: O=c1[nH]cc(F)c(=O)[nH]1
- T/C (endpoint: mean survival time, dose: 12.76 mg/kg/injection, schedule: Q01DX015 (ip), vehicle: carboxymethylcellulose (CMC)): 100 % of control
- T/C (endpoint: mean survival time, dose: 19.43 mg/kg/injection, schedule: Q01DX015 (ip), vehicle: carboxymethylcellulose (CMC)): 111 % of control
- T/C (endpoint: mean survival time, dose: 29.0 mg/kg/injection, schedule: Q01DX015 (ip), vehicle: carboxymethylcellulose (CMC)): 113 % of control
- T/C (endpoint: mean survival time, dose: 79.5 mg/kg/injection, schedule: Q01DX001 (ip), vehicle: carboxymethylcellulose (CMC)): 112 % of control
- T/C (endpoint: median survival time, dose: 8.4 mg/kg/injection, schedule: Q01DX009 (ip), vehicle: saline): 105 % of control
- T/C (endpoint: median survival time, dose: 14.0 mg/kg/injection, schedule: Q01DX009 (ip), vehicle: saline): 108 % of control
- T/C (endpoint: median survival time, dose: 23.0 mg/kg/injection, schedule: Q04DX003 (ip), vehicle: saline): 108 % of control
- T/C (endpoint: median survival time, dose: 39.0 mg/kg/injection, schedule: Q01DX009 (ip), vehicle: saline): 107 % of control
- T/C (endpoint: median survival time, dose: 39.0 mg/kg/injection, schedule: Q04DX003 (ip), vehicle: saline): 118 % of control
- T/C (endpoint: median survival time, dose: 65.0 mg/kg/injection, schedule: Q01DX009 (ip), vehicle: saline): 96 % of control
- T/C (endpoint: median survival time, dose: 108.0 mg/kg/injection, schedule: Q04DX003 (ip), vehicle: saline): 156 % of control
- T/C (endpoint: median survival time, dose: 180.0 mg/kg/injection, schedule: Q04DX003 (ip), vehicle: saline): 99 % of control

SMILES: Cc1c2oc3c(C)ccc(C(=O)N[C@@H]4C(=O)N[C@H](C(C)C)C(=O)N5CCC[C@H]5C(=O)N(C)CC(=O)N(C)[C@@H](C(C)C)C(=O)O[C@H]4C)c3nc-2c(C(=O)N[C@@H]2C(=O)N[C@H](C(C)C)C(=O)N3CCC[C@H]3C(=O)N(C)CC(=O)N(C)[C@@H](C(C)C)C(=O)O[C@H]2C)c(N)c1=O (I: [aThr][dV]P[Sar][NMeV] / II: [aThr][dV]P[Sar][NMeV]; ester I:1-I:C, II:1-II:C; linker I:N-II:N via Actinocin(9to1))
- T/C (endpoint: mean survival time, dose: 0.11 mg/kg/injection, schedule: Q01DX001 (ip), vehicle: saline): 97 % of control
- T/C (endpoint: mean survival time, dose: 0.18 mg/kg/injection, schedule: Q01DX001 (ip), vehicle: saline): 102 % of control
- T/C (endpoint: mean survival time, dose: 0.27 mg/kg/injection, schedule: Q01DX001 (ip), vehicle: saline): 102 % of control
- T/C (endpoint: mean survival time, dose: 12.0 micrograms/kg/injection, schedule: Q01DX Z (ip), vehicle: saline): 101 % of control
- T/C (endpoint: mean survival time, dose: 25.0 micrograms/kg/injection, schedule: Q01DX Z (ip), vehicle: saline): 104 % of control
- T/C (endpoint: mean survival time, dose: 50.0 micrograms/kg/injection, schedule: Q01DX Z (ip), vehicle: saline): 102 % of control
- T/C (endpoint: mean survival time, dose: 100.0 micrograms/kg/injection, schedule: Q01DX Z (ip), vehicle: saline): 101 % of control

SMILES: Nc1nc(=O)n(C2OC(CO)C(O)C2O)cc1F (stereo not drawn)
- T/C (endpoint: median survival time, dose: 1.0 mg/kg/injection, schedule: Q01DX009 (ip), vehicle: saline): 116 % of control
- T/C (endpoint: median survival time, dose: 2.0 mg/kg/injection, schedule: Q01DX009 (ip), vehicle: saline): 124 % of control
- T/C (endpoint: median survival time, dose: 4.0 mg/kg/injection, schedule: Q01DX009 (ip), vehicle: saline): 124 % of control
- T/C (endpoint: median survival time, dose: 8.0 mg/kg/injection, schedule: Q01DX009 (ip), vehicle: saline): 153 % of control
- T/C (endpoint: median survival time, dose: 8.0 mg/kg/injection, schedule: Q01DX009 (ip), vehicle: water): 173 % of control
- T/C (endpoint: median survival time, dose: 16.0 mg/kg/injection, schedule: Q01DX009 (ip), vehicle: saline): 179 % of control
- T/C (endpoint: median survival time, dose: 16.0 mg/kg/injection, schedule: Q01DX009 (ip), vehicle: water): 212 % of control
- T/C (endpoint: median survival time, dose: 32.0 mg/kg/injection, schedule: Q01DX009 (ip), vehicle: saline): 201 % of control
- T/C (endpoint: median survival time, dose: 32.0 mg/kg/injection, schedule: Q01DX009 (ip), vehicle: water): 234 % of control
- T/C (endpoint: median survival time, dose: 64.0 mg/kg/injection, schedule: Q01DX009 (ip), vehicle: saline): 228 % of control
- T/C (endpoint: median survival time, dose: 64.0 mg/kg/injection, schedule: Q01DX009 (ip), vehicle: water): 247 % of control
- T/C (endpoint: median survival time, dose: 128.0 mg/kg/injection, schedule: Q01DX009 (ip), vehicle: water): 89 % of control
- T/C (endpoint: median survival time, dose: 512.0 mg/kg/injection, schedule: Q01DX009 (ip), vehicle: saline): 98 % of control

SMILES: O=NN(CCF)C(=O)NCCF
- T/C (endpoint: mean survival time, dose: 3.5 mg/kg/injection, schedule: Q01DX001 (ip), vehicle: saline): 160 % of control
- T/C (endpoint: mean survival time, dose: 5.0 mg/kg/injection, schedule: Q01DX001 (ip), vehicle: saline): 208 % of control
- T/C (endpoint: mean survival time, dose: 7.0 mg/kg/injection, schedule: Q01DX001 (ip), vehicle: saline): 254 % of control
- T/C (endpoint: mean survival time, dose: 8.0 mg/kg/injection, schedule: Q01DX001 (ip), vehicle: saline): 284 % of control
- T/C (endpoint: mean survival time, dose: 14.0 mg/kg/injection, schedule: Q01DX001 (ip), vehicle: saline): 303 % of control

SMILES: O=NN(CCF)C(=O)NC1CCCCC1
- T/C (endpoint: mean survival time, dose: 13.0 mg/kg/injection, schedule: Q01DX001 (ip), vehicle: carboxymethylcellulose (CMC)): 120 % of control
- T/C (endpoint: mean survival time, dose: 13.5 mg/kg/injection, schedule: Q01DX001 (ip), vehicle: other): 166 % of control and 214 % of control and 233 % of control
- T/C (endpoint: mean survival time, dose: 13.5 mg/kg/injection, schedule: Q01DX001 (oral), vehicle: other): 253 % of control and 270 % of control and 284 % of control
- T/C (endpoint: mean survival time, dose: 20.0 mg/kg/injection, schedule: Q01DX001 (ip), vehicle: carboxymethylcellulose (CMC)): 180 % of control
- T/C (endpoint: mean survival time, dose: 27.0 mg/kg/injection, schedule: Q01DX001 (ip), vehicle: other): 156 % of control and 373 % of control and 379 % of control
- T/C (endpoint: mean survival time, dose: 27.0 mg/kg/injection, schedule: Q01DX001 (oral), vehicle: other): 325 % of control and 352 % of control and 462 % of control
- T/C (endpoint: mean survival time, dose: 30.0 mg/kg/injection, schedule: Q01DX001 (ip), vehicle: carboxymethylcellulose (CMC)): 290 % of control and 322 % of control
- T/C (endpoint: mean survival time, dose: 45.0 mg/kg/injection, schedule: Q01DX001 (ip), vehicle: carboxymethylcellulose (CMC)): 293 % of control and 337 % of control
- T/C (endpoint: mean survival time, dose: 54.0 mg/kg/injection, schedule: Q01DX001 (ip), vehicle: other): 190 % of control and 322 % of control and 367 % of control
- T/C (endpoint: mean survival time, dose: 54.0 mg/kg/injection, schedule: Q01DX001 (oral), vehicle: other): 203 % of control and 379 % of control
- T/C (endpoint: mean survival time, dose: 67.0 mg/kg/injection, schedule: Q01DX001 (ip), vehicle: carboxymethylcellulose (CMC)): 275 % of control

SMILES: CCOC(=O)C1CCC(NC(=O)N(CCCl)N=O)CC1 (stereo not drawn)
- T/C (endpoint: mean survival time, dose: 4.0 mg/kg/injection, schedule: Q01DX001 (ip), vehicle: other): 103 % of control and 113 % of control
- T/C (endpoint: mean survival time, dose: 8.0 mg/kg/injection, schedule: Q01DX001 (ip), vehicle: other): 110 % of control
- T/C (endpoint: mean survival time, dose: 14.0 mg/kg/injection, schedule: Q01DX001 (ip), vehicle: other): 118 % of control
- T/C (endpoint: mean survival time, dose: 31.0 mg/kg/injection, schedule: Q01DX001 (ip), vehicle: other): 179 % of control and 203 % of control
- T/C (endpoint: mean survival time, dose: 33.0 mg/kg/injection, schedule: Q01DX001 (ip), vehicle: other): 169 % of control and 203 % of control
- T/C (endpoint: mean survival time, dose: 44.0 mg/kg/injection, schedule: Q01DX001 (ip), vehicle: other): 225 % of control
- T/C (endpoint: mean survival time, dose: 47.0 mg/kg/injection, schedule: Q01DX001 (ip), vehicle: other): 203 % of control and 239 % of control
- T/C (endpoint: mean survival time, dose: 66.0 mg/kg/injection, schedule: Q01DX001 (ip), vehicle: other): 175 % of control and 303 % of control
- T/C (endpoint: mean survival time, dose: 67.0 mg/kg/injection, schedule: Q01DX001 (ip), vehicle: other): 155 % of control
- T/C (endpoint: mean survival time, dose: 70.0 mg/kg/injection, schedule: Q01DX001 (ip), vehicle: other): 151 % of control

SMILES: c1cc2n(n1)CCN2
- T/C (endpoint: median survival time, dose: 50.0 mg/kg/injection, schedule: Q01DX009 (ip), vehicle: water): 94 % of control
- T/C (endpoint: median survival time, dose: 100.0 mg/kg/injection, schedule: Q01DX009 (ip), vehicle: water): 106 % of control
- T/C (endpoint: median survival time, dose: 100.0 mg/kg/injection, schedule: Q04DX003 (ip), vehicle: water): 102 % of control
- T/C (endpoint: median survival time, dose: 200.0 mg/kg/injection, schedule: Q01DX009 (ip), vehicle: water): 107 % of control
- T/C (endpoint: median survival time, dose: 200.0 mg/kg/injection, schedule: Q04DX003 (ip), vehicle: water): 114 % of control
- T/C (endpoint: median survival time, dose: 300.0 mg/kg/injection, schedule: Q04DX003 (ip), vehicle: water): 116 % of control

SMILES: O=C(Nc1ccc(C2=NCCN2)cc1)c1cccc(C(=O)Nc2ccc(C3=NCCN3)cc2)c1
- T/C (endpoint: mean survival time, dose: 31.0 mg/kg/injection, schedule: Q01DX Z (ip), vehicle: water): 89 % of control

SMILES: CN(N=O)C(=O)Nc1c[nH]c(=O)[nH]c1=O
- T/C (endpoint: mean survival time, dose: 60.0 mg/kg/injection, schedule: Q01DX001 (ip), vehicle: saline): 103 % of control
- T/C (endpoint: mean survival time, dose: 120.0 mg/kg/injection, schedule: Q01DX001 (ip), vehicle: saline): 104 % of control
- T/C (endpoint: mean survival time, dose: 480.0 mg/kg/injection, schedule: Q01DX001 (ip), vehicle: saline): 108 % of control
- T/C (endpoint: mean survival time, dose: 960.0 mg/kg/injection, schedule: Q01DX001 (ip), vehicle: saline): 86 % of control
